Reference: patent publication US10087191B2, “Piperidine derivative and preparation method and pharmaceutical use thereof” (Jiangsu Hengrui Medicine Co., Ltd., priority 2015, dated 2018)

Columns and labels:
[1] = Pharmacokinetics assay in BALB/C nude mice after intragastrical administration; assay type: in vivo; conditions: female, mouse, plasma, po, 3 mg/kg; for AUC: read-out: Area Under Curve AUC; for CL/F: read-out: Clearance CL/F (converted); for half-life: read-out: Half-Life t½ (converted); for MRT: read-out: Mean Residence Time MRT; for Cmax: read-out: Plasma Conc. Cmax
In short: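 Fasted female BALB/C nude mice were dosed intragastrically (0.2 mL/10 g) with compound in 9% PEG400/0.5% Tween 80/0.5% PVP/90% aqueous 0.5% CMC. Blood was taken at 0.5–24.0 h (3 mice per time point), and plasma levels were measured by LC/MS/MS.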

MCF7 cells = experiment: Inhibition of the proliferation of MCF7 cells (Cell Titer-Glo); assay type: cell-based; conditions: Homo sapiens, MCF-7 cells, 72 hours, read-out: IC50 value of inhibition effect on the proliferation of MCF7 cells
In short: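 Viability by Cell Titer-Glo luminescence; IC50 from signal versus log concentration.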

estrogen receptor (ER) = estrogen receptor (ER) (Homo sapiens (Human), UniProt P03372); experiment: Inhibition of the binding of estrogen (E) to estrogen receptor (ER), MCF-7/ERE-luciferase reporter cells; assay type: cell-based; conditions: MCF-7/ERE-luciferase cells, 0.1 nM estradiol, 24 hours; read-out: IC50 value of inhibition effect on the binding of E to ER
ERα = ERα (Homo sapiens (Human), UniProt P03372); experiment: Degradation effect on ERα in MCF-7 cells (ERα Duoset ELISA); assay type: cell-based; conditions: MCF-7 cells; read-out: IC50 value of the degradation effect on ERα
ERα, sequence (P03372 whole entry): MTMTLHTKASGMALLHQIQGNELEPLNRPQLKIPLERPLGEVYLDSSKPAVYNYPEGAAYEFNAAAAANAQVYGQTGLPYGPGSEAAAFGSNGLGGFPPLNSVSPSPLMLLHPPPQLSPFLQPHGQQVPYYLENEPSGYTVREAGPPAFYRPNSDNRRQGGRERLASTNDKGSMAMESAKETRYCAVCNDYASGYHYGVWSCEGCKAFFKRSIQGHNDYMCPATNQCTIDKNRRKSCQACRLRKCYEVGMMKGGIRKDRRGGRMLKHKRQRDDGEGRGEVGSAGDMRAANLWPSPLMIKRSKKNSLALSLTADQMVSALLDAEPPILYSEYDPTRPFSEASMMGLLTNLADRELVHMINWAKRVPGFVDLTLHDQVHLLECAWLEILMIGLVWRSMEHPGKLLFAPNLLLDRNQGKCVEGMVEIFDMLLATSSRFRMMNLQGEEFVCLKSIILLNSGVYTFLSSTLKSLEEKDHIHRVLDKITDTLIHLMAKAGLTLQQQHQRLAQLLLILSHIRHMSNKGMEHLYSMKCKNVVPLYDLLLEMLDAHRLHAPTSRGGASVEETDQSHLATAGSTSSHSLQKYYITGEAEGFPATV

estrogen receptor (ER), sequence (P03372 whole entry): as above

SMILES	AUC [1] [ng·h/mL]	CL/F [1] [mL/min/kg]	half-life [1] [h]	MRT [1] [h]	Cmax [1] [ng/mL]	IC50 (MCF7 cells) [pM]	IC50 (estrogen receptor (ER)) [pM]	DC50 (ERα) [pM]
C[C@@H]1Cc2c(oc3cccc(F)c23)[C@@H](c2c(F)cc(/C=C/C(=O)O)cc2F)N1CC(C)(C)F [Example 74, (E)-3-(3,5-difluoro-4-((1R,3R)-5-fluoro-2-(2-fluoro-2-methylpropyl)-3-methyl-1,2,3,4-tetrahydrobenzofuro[2,3-c]pyridin-1-yl)phenyl)acrylic acid]	5850	142	3.16	2.41	2530	90	210	1350
CC1Cc2c(oc3ccc(-c4cnn(C)c4)cc23)C(c2c(F)cc(/C=C/C(=O)O)cc2F)N1CC(C)(C)F [Example 89, (E)-3-(3,5-difluoro-4-((1R,3R/1S,3S)-2-(2-fluoro-2-methylpropyl)-3-methyl-6-(1-methyl-1H-pyrazol-4-yl)-1,2,3,4-tetrahydrobenzofuro[2,3-c]pyridin-1-yl)phenyl)acrylic acid]	7710	108	3.97	5.69	1270	80	210	310
